Columns and labels:
[1] = concentration of aqueous solutions of ammonium glyphosate salt at room temperature; assay type: physicochemical; conditions: water
From the text: Wherein m is a positive integer from 1 to 3, the ammonium cation may link to the hydroxyl which is bonded with a carbonyl or a phosphoryl. As for the single molecule, m equals 1-3. The generally used ammonium glyphosate salt is a mono-ammonium salt, namely, m equals 1. However, it may not be deemed simply that the ammonium glyphosate salt obtained in practical production has m just equal to a positive integer, but a value in the range of 0.8-1.3. These substances have very high solubility in water and the concentration of their aqueous solutions may be more than 20% at room temperature. However, they have very low solubility in such organic solvents that are completely miscible with any proportion of water or have a relatively high solubility in water. Thus, after the reaction is ended, such organic solvent(s) is(are) added to the reaction solution to form a homogeneous solution with water in the system, thereby substantially decreasing the solubility of the ammonium glyphosate salt therein and crystallizing the salt out. Such solvents may include, or may be, alcohols and acetals, etc. or a mixture of two or more solvents. The alcohols may include monobase alcohols having 1-4 carbon atoms. It is preferred to use methanol, ethanol, propanol, butanol and methylal in terms of cost effective, which can be used alone or as a mixture of thereof. […]

[2] = saturation concentrations of ammonium glyphosate in different aqueous methanol solutions; assay type: physicochemical; conditions: 30° C.
From the text: The amount of gaseous ammonia introduced is 1.01-1.5 times by mole as that of glyphosate added. When the ammonia is not enough, the reaction will not be carried out completely to cause the product having relatively more glyphosate, and thus a part of the water-soluble solid ammonium glyphosate may not be dissolved due to very low the solubility of glyphosate in water. If the ammonia is introduced in excess, relatively more free ammonia will remain in the system, thereby the ammonia will escape in subsequent processes to result in the environmental pollution. A relatively simple method for judging the end point of the reaction is to measure the pH of the reaction system. The inventor believes that the pH should be kept at 5-8. The solubility of ammonium glyphosate varies with the concentration of the aqueous methanol solution, the higher the concentration of aqueous methanol solution is, the lower the solubility of ammonium glyphosate is. The saturation concentrations of ammonium glyphosate in different concentrations of the aqueous methanol solution at 30° C. are listed in Table 1.

[3] = 25° C.; cited from earlier work

| SMILES | concentration of aqueous solution [1] | Saturation concentration (w/w) % ([2]; content of methanol 5 (w/w) %, aqueous methanol solution) | Saturation concentration (w/w) % ([2]; content of methanol 20 (w/w) %, aqueous methanol solution) | Saturation concentration (w/w) % ([2]; content of methanol 40 (w/w) %, aqueous methanol solution) | Saturation concentration (w/w) % ([2]; content of methanol 60 (w/w) %, aqueous methanol solution) | Saturation concentration (w/w) % ([2]; content of methanol 80 (w/w) %, aqueous methanol solution) | Saturation concentration (w/w) % ([2]; content of methanol 100 (w/w) %) | solubility of glyphosate in water [3] [g per 100 g water] |
| --- | --- | --- | --- | --- | --- | --- | --- | --- |
| N.O=C(O)CNCP(=O)(O)O [ammonium glyphosate] | more than 20% | 18.2 (w/w) % | 8.9 (w/w) % | 4.3 (w/w) % | 1.5 (w/w) % | 0.9 (w/w) % | 0.6 (w/w) % | – |
| O=C(O)CNCP(=O)(O)O [glyphosate, N-phosphonomethyl glycine] | – | – | – | – | – | – | – | 1.2 |

— patent US7435847B2, “Preparation of solid ammonium glyphosate using organic solvent in extraction” (priority 2002, dated 2008)
